In the supplement of paper PMC10307832:

How the values were obtained:
Experiment in all cases: relative viability (nuclei count vs DMSO), 5 days (fraction); higher = more cells survive
[1] = compound: C1=CC2=NC=CN=C2C=C1/C=C/3\C(=O)NC(=O)S3
Method in brief: (§1)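 Viability was read as treated-well nuclei divided by vehicle-well nuclei, using the median across plates. Lung cancer cell lines in 1536-well plates were kept overnight at 37 °C, pinned with five √10-spaced library-drug doses, and after 5 days were Hoechst-stained, imaged at 4× and counted in MetaXpress. Plates passed only with control CV below 25% and at least one doubling.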

[2] = compound: CCN1CCN(c2ccc(Nc3cc(N(C)C(=O)Nc4c(Cl)c(OC)cc(OC)c4Cl)ncn3)cc2)CC1 [BGJ398]
Method in brief: as §1

[3] = compound: C1=CC2=NC=CN=C2C=C1/C=C/3\C(=O)NC(=O)S3 + Cc1nc(NC(=O)N2CCC[C@H]2C(N)=O)sc1-c1ccnc(C(C)(C)C(F)(F)F)c1 [Alpelisib] (partner 2 µM)
Method in brief: (§2)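 Relative viability is defined as nuclei in treated wells over nuclei in vehicle wells. Duplicate plates were run and medians reported. Lung cancer cell lines in 1536-well plates were dosed by pin tool one day after seeding, with one drug or with a fixed anchor-drug dose plus five library-drug doses (not always all listed) in √10 steps, and nuclei were counted after 5 days.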

[4] = compound: CCN1CCN(c2ccc(Nc3cc(N(C)C(=O)Nc4c(Cl)c(OC)cc(OC)c4Cl)ncn3)cc2)CC1 [BGJ398] + Nc1nc2[nH]cc(CCc3ccc(C(=O)N[C@@H](CCC(=O)O)C(=O)O)cc3)c2c(=O)[nH]1 [Pemetrexed] (partner 0.2 µM)
Method in brief: as §2

Work on NCI-H3122 yielded a relative viability ([1]; 0.02 µM) of 1, a relative viability ([1]; 0.06325 µM) of 1.04 and a relative viability ([1]; 0.2 µM) of 0.975. It also gave a relative viability ([1]; 0.6325 µM) of 0.949, a relative viability ([1]; 2 µM) of 0.984 and a relative viability ([2]; 0.01 µM) of 0.934. The relative viability ([2]; 0.03162 µM) was 1.01, the relative viability ([2]; 0.1 µM) was 1.04 and the relative viability ([2]; 0.3162 µM) was 0.977. The relative viability ([2]; 1 µM) was 1.01, the relative viability ([3]; first compound 0.02 µM) was 0.737 and the relative viability ([3]; first compound 0.06325 µM) was 0.854. The relative viability ([3]; first compound 0.2 µM) was 0.873, the relative viability ([3]; first compound 0.6325 µM) was 0.766 and the relative viability ([3]; first compound 2 µM) was 0.602. For the same cell line, the relative viability ([4]; first compound 0.01 µM) was 0.206, the relative viability ([4]; first compound 0.03162 µM) was 0.193 and the relative viability ([4]; first compound 0.1 µM) was 0.192. For the same cell line, the relative viability ([4]; first compound 0.3162 µM) was 0.188 and the relative viability ([4]; first compound 1 µM) was 0.202.

PC-3 [JPC-3] gave a relative viability ([1]; 0.02 µM) of 0.991, a relative viability ([1]; 0.06325 µM) of 1.07 and a relative viability ([1]; 0.2 µM) of 1.06. It also gave a relative viability ([1]; 0.6325 µM) of 1, a relative viability ([1]; 2 µM) of 1.04 and a relative viability ([2]; 0.01 µM) of 1.05. The relative viability ([2]; 0.1 µM) was 1.05, the relative viability ([2]; 0.3162 µM) was 0.695 and the relative viability ([2]; 1 µM) was 0.919. For the same cell line, the relative viability ([3]; first compound 0.02 µM) was 1.07, the relative viability ([3]; first compound 0.06325 µM) was 1.12 and the relative viability ([3]; first compound 0.2 µM) was 0.994. For the same cell line, the relative viability ([3]; first compound 0.6325 µM) was 0.987, the relative viability ([3]; first compound 2 µM) was 1.03 and the relative viability ([4]; first compound 0.01 µM) was 1.16. It also gave a relative viability ([4]; first compound 0.1 µM) of 0.766 and a relative viability ([4]; first compound 1 µM) of 0.992.

For PC-14, the relative viability ([1]; 0.02 µM) was 1.02, the relative viability ([1]; 0.06325 µM) was 1.02 and the relative viability ([1]; 0.2 µM) was 1.01. The relative viability ([1]; 0.6325 µM) was 0.982, the relative viability ([1]; 2 µM) was 0.989 and the relative viability ([2]; 0.01 µM) was 1.01. It also gave a relative viability ([2]; 0.03162 µM) of 0.732, a relative viability ([2]; 0.1 µM) of 1.04 and a relative viability ([2]; 0.3162 µM) of 0.766. It also gave a relative viability ([2]; 1 µM) of 0.93, a relative viability ([3]; first compound 0.02 µM) of 0.959 and a relative viability ([3]; first compound 0.06325 µM) of 0.973. It also gave a relative viability ([3]; first compound 0.2 µM) of 0.932, a relative viability ([3]; first compound 0.6325 µM) of 0.894 and a relative viability ([3]; first compound 2 µM) of 0.863. For the same cell line, the relative viability ([4]; first compound 0.01 µM) was 0.13, the relative viability ([4]; first compound 0.03162 µM) was 0.132 and the relative viability ([4]; first compound 0.1 µM) was 0.131. It also gave a relative viability ([4]; first compound 1 µM) of 0.151.

Cell Line RERF-LC-KJ has a relative viability ([1]; 0.02 µM) of 0.908, a relative viability ([1]; 0.06325 µM) of 1.02 and a relative viability ([1]; 0.2 µM) of 1. It also gave a relative viability ([1]; 0.6325 µM) of 0.948, a relative viability ([1]; 2 µM) of 0.841 and a relative viability ([2]; 0.01 µM) of 1.04. For the same cell line, the relative viability ([2]; 0.03162 µM) was 1.05, the relative viability ([2]; 0.1 µM) was 1.06 and the relative viability ([2]; 0.3162 µM) was 0.987. It also gave a relative viability ([2]; 1 µM) of 1.05, a relative viability ([3]; first compound 0.02 µM) of 0.633 and a relative viability ([3]; first compound 0.06325 µM) of 0.816. It also gave a relative viability ([3]; first compound 0.2 µM) of 0.832, a relative viability ([3]; first compound 0.6325 µM) of 0.786 and a relative viability ([3]; first compound 2 µM) of 0.788. It also gave a relative viability ([4]; first compound 0.01 µM) of 0.436, a relative viability ([4]; first compound 0.03162 µM) of 0.431 and a relative viability ([4]; first compound 0.1 µM) of 0.37. For the same cell line, the relative viability ([4]; first compound 0.3162 µM) was 0.49 and the relative viability ([4]; first compound 1 µM) was 0.408.

In the case of SK-LU-1, the relative viability ([1]; 0.02 µM) is reported as 1.06, the relative viability ([1]; 0.06325 µM) is reported as 1.21 and the relative viability ([1]; 0.2 µM) is reported as 1.09. It also gave a relative viability ([1]; 0.6325 µM) of 1.02, a relative viability ([1]; 2 µM) of 0.969 and a relative viability ([2]; 0.01 µM) of 0.983. It also gave a relative viability ([2]; 0.03162 µM) of 1.07, a relative viability ([2]; 0.1 µM) of 1.22 and a relative viability ([2]; 0.3162 µM) of 0.978. For the same cell line, the relative viability ([2]; 1 µM) was 1.03, the relative viability ([3]; first compound 0.02 µM) was 1.01 and the relative viability ([3]; first compound 0.06325 µM) was 1.5. For the same cell line, the relative viability ([3]; first compound 0.2 µM) was 1.21, the relative viability ([3]; first compound 0.6325 µM) was 1.05 and the relative viability ([3]; first compound 2 µM) was 0.968. For the same cell line, the relative viability ([4]; first compound 0.01 µM) was 0.866, the relative viability ([4]; first compound 0.03162 µM) was 1 and the relative viability ([4]; first compound 0.1 µM) was 1.05. For the same cell line, the relative viability ([4]; first compound 0.3162 µM) was 0.936 and the relative viability ([4]; first compound 1 µM) was 1.07.

In the case of SK-MES-1, the relative viability ([1]; 0.02 µM) is reported as 0.971, the relative viability ([1]; 0.06325 µM) is reported as 1.08 and the relative viability ([1]; 0.2 µM) is reported as 1.02. It also gave a relative viability ([1]; 0.6325 µM) of 0.984, a relative viability ([1]; 2 µM) of 0.875 and a relative viability ([2]; 0.01 µM) of 0.941. For the same cell line, the relative viability ([2]; 0.03162 µM) was 1.05, the relative viability ([2]; 0.1 µM) was 1.05 and the relative viability ([2]; 0.3162 µM) was 0.981. For the same cell line, the relative viability ([2]; 1 µM) was 1.01, the relative viability ([3]; first compound 0.06325 µM) was 0.987 and the relative viability ([3]; first compound 0.2 µM) was 0.86. For the same cell line, the relative viability ([3]; first compound 0.6325 µM) was 0.868, the relative viability ([3]; first compound 2 µM) was 0.802 and the relative viability ([4]; first compound 0.01 µM) was 0.84. For the same cell line, the relative viability ([4]; first compound 0.03162 µM) was 0.999, the relative viability ([4]; first compound 0.1 µM) was 0.888 and the relative viability ([4]; first compound 0.3162 µM) was 1.02. For the same cell line, the relative viability ([4]; first compound 1 µM) was 0.898.

SW 1573 was tested, and the relative viability ([1]; 0.02 µM) was 0.984, the relative viability ([1]; 0.06325 µM) was 1.26 and the relative viability ([1]; 0.2 µM) was 1.09. The relative viability ([1]; 0.6325 µM) was 0.948, the relative viability ([1]; 2 µM) was 0.79 and the relative viability ([2]; 0.01 µM) was 0.975. The relative viability ([2]; 0.03162 µM) was 0.934, the relative viability ([2]; 0.1 µM) was 0.94 and the relative viability ([2]; 0.3162 µM) was 0.893. The relative viability ([2]; 1 µM) was 0.999, the relative viability ([3]; first compound 0.02 µM) was 0.54 and the relative viability ([3]; first compound 0.06325 µM) was 0.852. It also gave a relative viability ([3]; first compound 0.2 µM) of 0.791, a relative viability ([3]; first compound 0.6325 µM) of 0.636 and a relative viability ([3]; first compound 2 µM) of 0.616. The relative viability ([4]; first compound 0.01 µM) was 0.817, the relative viability ([4]; first compound 0.03162 µM) was 0.833 and the relative viability ([4]; first compound 0.1 µM) was 0.83. The relative viability ([4]; first compound 0.3162 µM) was 0.748 and the relative viability ([4]; first compound 1 µM) was 0.944.

UMC-11 showed a relative viability ([1]; 0.02 µM) of 0.978, a relative viability ([1]; 0.06325 µM) of 1 and a relative viability ([1]; 0.2 µM) of 1.01. It also gave a relative viability ([1]; 0.6325 µM) of 0.925, a relative viability ([1]; 2 µM) of 1.06 and a relative viability ([2]; 0.01 µM) of 0.955. It also gave a relative viability ([2]; 0.03162 µM) of 1.05, a relative viability ([2]; 0.1 µM) of 1.05 and a relative viability ([2]; 0.3162 µM) of 0.968. It also gave a relative viability ([2]; 1 µM) of 0.919, a relative viability ([3]; first compound 0.02 µM) of 0.987 and a relative viability ([3]; first compound 0.06325 µM) of 1.19. The relative viability ([3]; first compound 0.2 µM) was 0.989, the relative viability ([3]; first compound 0.6325 µM) was 0.948 and the relative viability ([3]; first compound 2 µM) was 0.932. For the same cell line, the relative viability ([4]; first compound 0.01 µM) was 0.799, the relative viability ([4]; first compound 0.03162 µM) was 0.747 and the relative viability ([4]; first compound 0.1 µM) was 0.854. The relative viability ([4]; first compound 0.3162 µM) was 0.814 and the relative viability ([4]; first compound 1 µM) was 0.758.
